From patent US20240148821A1, “PHARMACEUTICAL USE OF CYCLIC PEPTIDE COMPOUND” (CHUGAI SEIYAKU KABUSHIKI KAISHA, priority 2021, published 2024)
Numbered stars: 1 amine (or outer) side, 2 acyl side, 3 side chain; on linkers, the order of the positions; unused ones are H or OH. Bridge positions count the residues as written; N and C are the ends. Square brackets hold non-standard residues; d marks the D form. Peptide text beside a SMILES is read from it. * marks the point of attachment. hPhe(3-Cl-4-CF3) = N[C@@H](CCc1ccc(C(F)(F)F)c(Cl)c1)C(=O)O; hPhe(3-F,4-CF3) = N[C@@H](CCc1ccc(C(F)(F)F)c(F)c1)C(=O)O; NEtPhe(4-CF3) = CCN[C@@H](Cc1ccc(C(F)(F)F)cc1)C(=O)O; NMePhe(4-Cl) = CN[C@@H](Cc1ccc(Cl)cc1)C(=O)O; X116 = O=C([C@H](CCc1cccc(F)c1)N[*:1])[*:2]; NMedβ3hAla = C[C@H](CC(=O)[*:2])N(C)[*:1]; NMeGly(cPent) = CN[C@H](C(=O)O)C1CCCC1; NMeCha = CN[C@@H](CC1CCCCC1)C(=O)O; Hyp = O=C(O)[C@@H]1C[C@@H](O)CN1; NMeI = CC[C@H](C)[C@H](NC)C(=O)O; NMeD = CN[C@@H](CC(=O)O)C(=O)O; NMeL = CN[C@@H](CC(C)C)C(=O)O; NMeV = CN[C@H](C(=O)O)C(C)C; NMeS = CN[C@@H](CO)C(=O)O; NMeA = CN[C@@H](C)C(=O)O; Piperidide = C1CCN(*)CC1; Pyrrolidide = C1CCN(*)C1; Ac5c = NC1(C(=O)O)CCCC1; Aze = O=C(O)[C@@H]1CCN1; Cyclopropyl = C1CC1*; Sar = CNCC(=O)O; Propyl = CCC*

What follows are molecules tested against protein-protein interaction between Kras and SOS1 (biotin-tagged human Kras loaded with GDP, His-tagged human SOS1) (Homo sapiens (Human), UniProt P01116, G12D) (assay: Protein-protein interaction inhibition between Kras and SOS1 (KrasG12D-SOS PPI) using AlphaScreen). Conditions: AlphaScreen; biotin-tagged human Kras loaded with GDP, His-tagged human SOS1; read-out: KRAS G12D-SOS PPI IC50.
Format: biochemical
In the case of `CCO[C@@H]1C[C@H]2C(=O)NC3(CCCC3)C(=O)N(C)[C@@H]([C@@H](C)CC)C(=O)N(C)[C@H](C)CC(=O)N(C)[C@@H](CC(C)C)C(=O)N[C@@H]([C@@H](C)CC)C(=O)N[C@@H](C)C(=O)N3CC[C@H]3C(=O)N(CC)[C@@H](Cc3ccc(C(F)(F)F)cc3)C(=O)N(C)CC(=O)N[C@@H](CCc3ccc(C(F)(F)F)c(Cl)c3)C(=O)N2C1` [Compound 673] (cyclo(A[Aze][NEtPhe(4-CF3)][Sar][hPhe(3-Cl-4-CF3)][Hyp](Et)[Ac5c][NMeI][NMedβ3hAla][NMeL]I)), the IC50 is reported as 11 nM. For `CC[C@H](C)[C@@H]1NC(=O)[C@H](CC(C)C)N(C)C(=O)C[C@@H](C(=O)N2CCCCC2)N(C)C(=O)[C@H]([C@@H](C)CC)N(C)C(=O)C2(CCCC2)NC(=O)[C@@H]2CCCN2C(=O)[C@H](CCc2ccc(C(F)(F)F)c(F)c2)NC(=O)CN(C)C(=O)[C@H](C2CCCC2)N(C)C(=O)[C@@H]2CCN2C(=O)[C@H](C)N(C)C1=O` [Compound 674] ([NMeL]I[NMeA][Aze][NMeGly(cPent)][Sar][hPhe(3-F,4-CF3)]P[Ac5c][NMeI][NMeD]-Piperidide; lactam N-11), the IC50 was 5.6 nM. `CC[C@H](C)[C@@H]1NC(=O)[C@H](CC(C)C)N(C)C(=O)C[C@@H](C(=O)N2CCCCC2)N(C)C(=O)[C@H](C(C)C)N(C)C(=O)C2(CCCC2)NC(=O)[C@@H]2CCCN2C(=O)[C@H](CCc2ccc(C(F)(F)F)c(Cl)c2)NC(=O)CN(C)C(=O)[C@H](CC2CCCCC2)N(C)C(=O)[C@@H]2CCN2C(=O)[C@H](COC2CC2)N(C)C1=O` [Compound 676] ([NMeL]I[NMeS](Cyclopropyl)[Aze][NMeCha][Sar][hPhe(3-Cl-4-CF3)]P[Ac5c][NMeV][NMeD]-Piperidide; lactam N-11) showed an IC50 of 31 nM. `CC[C@H](C)[C@@H]1NC(=O)[C@H](CC(C)C)N(C)C(=O)C[C@@H](C(=O)N(C)C)NC(=O)[C@H](C2CCCC2)N(C)C(=O)C2(CCCC2)NC(=O)[C@@H]2CCCN2C(=O)[C@H](CCc2ccc(C(F)(F)F)c(Cl)c2)NC(=O)CN(C)C(=O)[C@H](CC2CCCCC2)N(C)C(=O)[C@@H]2CCN2C(=O)[C@H](C)N(C)C1=O` [Compound 677] ([NMeL]I[NMeA][Aze][NMeCha][Sar][hPhe(3-Cl-4-CF3)]P[Ac5c][NMeGly(cPent)]D-NMe2; lactam N-11) showed an IC50 of 4.1 nM. Work on `CC[C@H](C)[C@@H]1NC(=O)[C@H](CC(C)C)N(C)C(=O)C[C@@H](C(=O)N2CCCCC2)N(C)C(=O)[C@H](C(C)C)N(C)C(=O)C2(CCCC2)NC(=O)[C@@H]2CCCN2C(=O)[C@H](CCc2ccc(C(F)(F)F)c(Cl)c2)NC(=O)CN(C)C(=O)[C@H](Cc2ccc(Cl)cc2)N(C)C(=O)[C@@H]2CCN2C(=O)[C@H](C)N(C)C1=O` [Compound 680] ([NMeL]I[NMeA][Aze][NMePhe(4-Cl)][Sar][hPhe(3-Cl-4-CF3)]P[Ac5c][NMeV][NMeD]-Piperidide; lactam N-11) yielded an IC50 of 9.9 nM. Molecule `CCCOC[C@H]1C(=O)N(C)CC(=O)N[C@@H](CCc2ccc(C(F)(F)F)c(F)c2)C(=O)N2CCC[C@H]2C(=O)NC2(CCCC2)C(=O)N(C)[C@@H]([C@@H](C)CC)C(=O)N(C)[C@H](C(=O)N2CCCC2)CC(=O)N(C)[C@@H](CC(C)C)C(=O)N[C@@H]([C@@H](C)CC)C(=O)N(C)[C@@H](C)C(=O)N2CC[C@H]2C(=O)N1C` [Compound 684] ([NMeL]I[NMeA][Aze][NMeS](Propyl)[Sar][hPhe(3-F,4-CF3)]P[Ac5c][NMeI][NMeD]-Pyrrolidide; lactam N-11) has an IC50 of 1.9 nM. With `CC[C@H](C)[C@@H]1NC(=O)[C@H](C)N(C)C(=O)C[C@@H](C(=O)N2CCCCC2)N(C)C(=O)[C@H](C(C)C)N(C)C(=O)C2(CCCC2)NC(=O)[C@@H]2CCCN2C(=O)[C@H](CCc2cccc(F)c2)NC(=O)CN(C)C(=O)[C@H](CC2CCCCC2)N(C)C(=O)[C@@H]2CCN2C(=O)[C@H](C)N(C)C1=O` [Compound 685] ([NMeA]I[NMeA][Aze][NMeCha][Sar][X116]P[Ac5c][NMeV][NMeD]-Piperidide; lactam N-11) the IC50 was 130 nM.
